Measured values reported in US20100003271A1, “NITRIC OXIDE INCREASES SWITCHING OF T CELLS INTO T REGULATORY CELLS” (BOARD OF REGENTS OF THE UNIVERSITY OF TEXAS SYSTEM, priority 2006, published 2010).

Columns and labels:
Assay type in all cases: cell-based, human
[1] = test system: PBLs challenged with HLA-mismatched alloantigen; experiment: Number of Treg cells generated in alloactivated PBL culture; details: 100 μM SNAP, 60×10^6 PBLs, 5-day culture, FIG. 5A
Description: Alloactivation was set up by co-culturing responder PBLs (1-2×10^6 cells/ml) in a total volume of 35 ml of RPMI-10 with fully HLA mismatched gamma-irradiated (30 Gy) stimulators (1:1 ratio) in the presence of SNAP/DMSO. After 5 days, cells were washed and stained with anti-CD4-FITC and anti-CD25-PE Abs to isolate CD4+CD25^high and CD4+CD25^intermediate populations by FACS sorting. These cell populations were then added to fresh syngeneic PBLs (1×10^5) at different responder/regulator cell ratios (1/0, 1/0.005, 1/0.01, 1/0.05, 1/0.1, 1/0.5, and 1/1) with the same HLA-mismatched irradiated stimulators (1×10^5). Cells cultured in a 200 μl volume of RPMI-10 in 96-well round-bottomed plates for 5 days and pulsed with 1 μCi of [^3H]-thymidine for last 16 hours before harvesting. Cells were collected onto glass filters using an automated multi-sample harvester and the amount of [^3H]-thymidine incorporation was measured with a scintillation counter (Packard, Meridan, Conn.). Proliferative responses are expressed as the mean [^3H]-thymidine incorporation (counts per minute [cpm]) of triplicate wells±SD. In identical experiments, PBLs were activated with PHA (10 μg/ml) to examine the ability of NO-induced CD4+CD25^high population to suppress proliferation of alloantigen-specific MLC.

PHA-activated PBLs = experiment: Intracellular FoxP3 staining of CD4+CD25highCD127- population; details: PHA-activated PBLs, 30, 50, 100 μM SNAP, 5 days, FIG. 3
Description: Foxp3 intracellular staining was carried out using the FITC anti-human Foxp3 staining kit (BDBiosciences, San Diego, Calif.; Cat no 71-5776-40). In brief, PBLs from various groups were incubated with anti-human CD4-PerCP, anti-human CD25-APC and anti-human CD127-PE Abs for 20 minutes at room temperature for surface staining of CD4, CD25 and CD127 molecules, respectively. Cells were then washed, and fixed with Fix/Perm solution (30 minutes at 4° C.) and permeabilized with permeabilization buffer followed by blocking with rat serum (15 minutes at 4° C.). Cells were then stained with FITC-conjugated anti-FoxP3 or isotype control Ab (30 minutes at 4° C.). Cells were analyzed by flow cytometry for intracellular FoxP3 levels in CD4^+CD25^high/CD127^low versus CD4^+CD25^high/CD127^high cells on a FACSAria.

CD4+CD25- cells = experiment: CFSE labeling and T cell co-culture assay (switching of CD4+CD25- cells); details: in the presence of Treg cells
Description: The CD4^+CD25^negative and CD4^+CD25^high T cell populations were isolated from T cells by cell sorting (FACSAria). Next, CD4^+CD25^negative cells were labeled with carboxyfluorescein diacetate succinimidyl ester (CFDA-SE; cat no C1157, Invitrogen) as described elsewhere (Hans et al., 2005). A stock solution of CFSE (5 mM) was diluted with PBS and added to the CD4^+CD25^negative cells at final concentration of 1 µM per 1×10^6 cells (20 minutes at 37° C.). After three washings, CFSE-labeled CD4^+CD25^negative cells (1×10^6) were co-cultured without or with CD4^+CD25^high cells at 10:1 ratio without or with titrated SNAP or DMSO and 6 hours later cells were activated with PHA (10 μg/ml). Following 5 days cells were harvested and stained with anti-human CD25-APC and anti-human CD127-PE Abs to measure transformation of CD^4+CD25^negative cells to CD25^+CD127^negative cells by FACS. The same cells were added to a primary syngeneic MLC at responder/regulator cell ratios (1/0, 1/0.25, 1/0.5, and 1/1). Cells were cultured for 5 days and the [^3H]-thymidine incorporation was measured as described above.

PBLs = experiment: Generation of CD4+CD25highCD127- Treg cells in PBL culture (FACS)
Description: PBLs or purified T cells were either left untreated or treated with 10 μg/ml phytohemagglutanin (PHA, Sigma-Aldrich) at 1×10^6 cells/2 mL in 24-well plates in the absence or presence of various concentrations of SNAP-DMSO, DMSO or SNP and cultured in RPMI-10 for 5 days. Cells were then harvested and stained with anti-human CD4-PerCP, anti-human CD25-APC and anti-human CD127-PE Abs. Flow cytometry analysis measured CD4^+CD25^high CD127^low versus CD4^+CD25^highCD127^high populations using FACSAria with Diva program or FACSCalibur with CellQuest software (BD Pharmingen, San Diego, Calif.).

In the case of `CC(=O)NC(C(=O)O)C(C)(C)SN=O` (racemic) [SNAP, S-Nitroso-N-acetyl-DL-penicillamine], the “number of Treg cells generated relative to culture without SNAP” value [1] is reported as about 3 fold, the “generation of Foxp3-positive CD4+CD25+CD127- Treg cells” value (PHA-activated PBLs) is reported as “induces generation of Foxp3-positive” and the “switching of CD4+CD25- cells into CD4+CD25+CD127-FoxP3+ T regulatory (Tr1) cells” value (CD4+CD25- cells) is reported as “elevated switching”. For the same molecule, the “levels of CD4+CD25+CD127- Treg cells” value (PBLs; PHA-activated PBLs, 5-day culture, FIG. 2B) was “significantly increased”, the “increase in generation of CD4+CD25+CD127-FoxP3+ Treg cells” value (PBLs; low NO concentrations (10-100 μM nitrite)) was 3 fold and the “number of CD4+CD25+CD127- Treg cells” value (PBLs; non-activated PBLs) was “did not affect”.
